Measured values as given in patent US6720346B2, “Thiazole benzamide derivatives and pharmaceutical compositions for inhibiting cell proliferation” (Agouron Pharmaceuticals, Inc., priority 2001, dated 2004).

Legend:
[1] = biological target: T1, human CDK4/cyclin D3 (Homo sapiens, UniProt P11802); assay: Inhibition of CDK4/cyclin D retinoblastoma kinase activity (Ki; % inhibition); format: biochemical
T1 construct: made in house; host or cells: insect cells co-infected with baculovirus vectors
Summary of the method: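 Radiometric filter-binding read-out: Rb residues 386-928 phosphorylated by 5 nM CDK4/cyclin D3(1-264) from baculovirus-infected insect cells, 25 μM ATP, HEPES pH 7.4, 30 °C. Run 20 min, or 60 min for tight-binding inhibitors. Screening at 30 nM theoretical compound; apparent Ki by competitive-inhibition fitting.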

[2] = biological target: T2, CDK2/cyclin A (Homo sapiens, UniProt P24941); assay: Inhibition of CDK2/cyclin A retinoblastoma kinase activity (Ki; % inhibition); format: biochemical
T2 construct: made in house; host or cells: CDK2: insect cells (baculovirus); cyclin A: E. coli
Summary of the method: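 Apparent Ki values came from fitting concentration-dependent activity data to competitive (or competitive tight-binding) models, and % inhibition from single 30 nM screens of library compounds. Activity was measured as ³²P/³³P incorporation from 25 μM ATP into an Rb substrate by 10 or 19 nM CDK2/delta cyclin A at 30 °C over 60–75 min, pH 7.4.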

[3] = tested on: HCT-116 cell line; assay: Inhibition of cell growth, MTT tetrazolium salt assay; format: cell-based
Summary of the method: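 HCT-116 cells in McCoy's 5A were dosed 4 h after plating with compounds in 0.5% DMSO and grown 3–5 days at 37 °C. Then 0.2 mg/mL MTT was added for 4 h and formazan absorbance read at 540 nm. IC50/IC90 came from semi-log plots against DMSO-only controls.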

[4] = HCT-116 cells, 0.25 μM compound

T1 sequence (P11802 whole entry): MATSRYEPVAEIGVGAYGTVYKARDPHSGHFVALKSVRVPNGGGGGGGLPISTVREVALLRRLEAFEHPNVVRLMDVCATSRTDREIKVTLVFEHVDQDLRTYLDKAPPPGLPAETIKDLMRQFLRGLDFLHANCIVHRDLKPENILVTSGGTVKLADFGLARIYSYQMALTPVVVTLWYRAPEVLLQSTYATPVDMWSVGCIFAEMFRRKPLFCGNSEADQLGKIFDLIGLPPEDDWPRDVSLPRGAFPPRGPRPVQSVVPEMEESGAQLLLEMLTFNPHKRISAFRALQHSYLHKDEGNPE
T1 sequence (P30281 1-264 partner limits assumed): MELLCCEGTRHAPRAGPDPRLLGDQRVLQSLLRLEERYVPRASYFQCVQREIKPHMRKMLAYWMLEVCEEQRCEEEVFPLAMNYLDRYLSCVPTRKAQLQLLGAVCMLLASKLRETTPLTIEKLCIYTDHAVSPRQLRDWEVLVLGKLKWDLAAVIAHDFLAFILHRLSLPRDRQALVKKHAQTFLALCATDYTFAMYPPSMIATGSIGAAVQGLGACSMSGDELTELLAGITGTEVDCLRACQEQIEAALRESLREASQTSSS

| CDK4 % Inhibition at 0.03 μM ([1]; at 0.03 μM) [%] | CDK2 % Inhibition at 0.03 μM ([2]; at 0.03 μM) [%] | CDK4 % Inhibition at 0.03 μM ([1]; 0.03 μM compound) [%] | CDK2 % Inhibition at 0.03 μM ([2]; 0.03 μM compound) [%] | SMILES | HCT-116 % Inhibition at 0.1 μM ([3]; HCT-116, at 0.1 μM) [%] | HCT-116 % Inhibition at 0.25 μM ([3]; HCT-116, at 0.25 μM) [%] | HCT-116 % Inhibition at 0.1 μM ([3]; HCT-116 cells, 0.1 μM compound) [%] | HCT-116 % Inhibition at 0.25 μM [3, 4] [%] | also measured |
| --- | --- | --- | --- | --- | --- | --- | --- | --- | --- |
| 7 | 16 | – | – | CC(C)[C@@H](CO)NC(=O)c1ccc(Nc2nc(N)c(C(=O)c3c(F)cccc3F)s2)cc1 [Example G152] | 5 | 53 | – | – | – |
| – | – | −1 | −3 | COc1ccc(CCN(C)C(=O)c2ccc(Nc3nc(N)c(C(=O)c4c(F)cccc4F)s3)cc2)cc1OC [Example G361] | – | – | 26 | 48 | – |
| 7 | 7 | – | – | COC(=O)c1cccc(NC(=O)c2ccc(Nc3nc(N)c(C(=O)c4c(F)cccc4F)s3)cc2)c1 [Example G106] | 0 | 61 | – | – | – |
| 4 | 4 | – | – | CSc1ccccc1NC(=O)c1ccc(Nc2nc(N)c(C(=O)c3c(F)cccc3F)s2)cc1 [Example G31] | – | 75 | – | – | – |
| – | – | 22 | 8 | Nc1nc(Nc2ccc(C(=O)N[C@@H]3CCN(Cc4ccccc4)C3)cc2)sc1C(=O)c1c(F)cccc1F [Example C365] | – | – | 34 | 93 | – |
| 12 | −4 | – | – | CCOCCNC(=O)c1ccc(Nc2nc(N)c(C(=O)c3c(F)cccc3F)s2)cc1 [Example G136] | 0 | 49 | – | – | – |
| – | – | 12 | 10 | COC(=O)c1ccc(NC(=O)c2ccc(Nc3nc(N)c(C(=O)c4c(F)cccc4F)s3)cc2)cc1OC [Example G220] | – | – | 18 | 54 | – |
| – | – | 7 | 0 | Nc1nc(Nc2ccc(C(=O)NCCc3ccc(Cl)cc3)cc2)sc1C(=O)c1c(F)cccc1F [Example G266] | – | – | 28 | 30 | – |
| – | – | – | – | CN(C)CCNC(=O)c1ccc(Nc2nc(N)c(C(=O)c3c(Cl)cccc3Cl)s2)cc1 [Example B4, 4-[4-Amino-5-(2,6-dichloro-benzoyl)-thiazol-2-ylamino]-N-(2-dimethylamino-ethyl)-benzamide] | – | – | – | – | Ki ([1]; apparent Ki, CDK4/cyclin D3, Rb substrate): 8 nM; Ki ([2]; apparent Ki, CDK2/cyclin A, Rb substrate): 220 nM; IC50 ([3]; Homo sapiens, HCT-116, 120 h, MTT, three to five days): 520 nM |
| – | – | – | – | Nc1nc(Nc2ccc(C(=O)NC3CCN(Cc4ccccc4)C3)cc2)sc1C(=O)c1c(F)cccc1F (stereo not shown) [Example G353] | – | – | – | – | CDK4 % Inhibition at 0.03 μM ([1]; 0.03 μM compound, 0.03 µM): 46%; CDK2 % Inhibition at 0.03 μM ([2]; 0.03 μM compound, 0.03 µM): 35%; HCT-116 % Inhibition at 0.1 μM ([3]; HCT-116 cells, 0.1 μM compound, 0.1 µM): 0%; HCT-116 % Inhibition at 0.25 μM ([3]; HCT-116 cells, 0.25 μM compound, 0.25 µM): 55% |
| 20 | 15 | – | – | Cc1ccc(CCNC(=O)c2ccc(Nc3nc(N)c(C(=O)c4c(F)cccc4F)s3)cc2)cc1 [Example G111] | 0 | 52 | – | – | – |
| 20 | 25 | – | – | CC(NC(=O)c1ccc(Nc2nc(N)c(C(=O)c3c(F)cccc3F)s2)cc1)c1ccccc1 (stereo not shown) [Example G162] | 3 | 84 | – | – | – |
| 12 | −5 | – | – | Nc1nc(Nc2ccc(C(=O)NC3CC3)cc2)sc1C(=O)c1c(F)cccc1F [Example G123] | 4 | 50 | – | – | – |
| – | – | 8 | −17 | CN(C)CCN1CCN(C(=O)c2ccc(Nc3nc(N)c(C(=O)c4c(F)cccc4F)s3)cc2)CC1 [Example G382] | – | – | 17 | 47 | – |
| – | – | 27 | 30 | Nc1nc(Nc2ccc(C(=O)NCc3ccc(C(F)(F)F)cc3)cc2)sc1C(=O)c1c(F)cccc1F [Example G261] | – | – | 26 | 69 | – |
